Measurements taken from ChEMBL document CHEMBL2412990, “Synthesis and pharmacological evaluation of new N-phenylpiperazine derivatives designed as homologues of the antipsychotic lead compound LASSBio-579” (Eur J Med Chem, 2013).

Assays:
[1] = target: T1, Alpha-1B adrenergic receptor (Rattus norvegicus, UniProt P15823); test: Displacement of [3H]-[…] from alpha1B adrenoreceptor in rat liver membranes after 45 mins by liquid scintillation counting; type: cell membranes, Membrane
T1 sequence (P15823 whole entry): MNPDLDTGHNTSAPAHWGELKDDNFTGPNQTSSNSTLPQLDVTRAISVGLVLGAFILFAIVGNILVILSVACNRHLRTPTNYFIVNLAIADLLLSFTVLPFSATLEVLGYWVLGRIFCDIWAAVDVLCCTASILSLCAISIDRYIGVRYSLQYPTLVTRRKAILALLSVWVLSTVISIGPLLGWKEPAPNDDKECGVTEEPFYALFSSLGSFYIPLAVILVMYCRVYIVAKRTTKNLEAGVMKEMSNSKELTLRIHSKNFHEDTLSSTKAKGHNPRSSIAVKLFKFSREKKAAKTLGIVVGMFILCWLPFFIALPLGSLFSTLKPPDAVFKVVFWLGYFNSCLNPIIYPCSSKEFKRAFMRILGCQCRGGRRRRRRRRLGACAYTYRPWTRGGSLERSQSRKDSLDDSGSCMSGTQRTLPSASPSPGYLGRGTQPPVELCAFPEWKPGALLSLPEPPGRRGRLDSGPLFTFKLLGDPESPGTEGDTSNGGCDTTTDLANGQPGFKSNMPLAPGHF

[2] = target: T2, Adrenergic receptor alpha-2 (Rattus norvegicus, UniProt P22086+P19328+P22909); test: Displacement of [3H]-RX821002 from alpha2 adrenoreceptor in rat brain cortical membranes after 45 mins by liquid scintillation counting; type: cell membranes, Membrane
T2 sequence (P22086 whole entry): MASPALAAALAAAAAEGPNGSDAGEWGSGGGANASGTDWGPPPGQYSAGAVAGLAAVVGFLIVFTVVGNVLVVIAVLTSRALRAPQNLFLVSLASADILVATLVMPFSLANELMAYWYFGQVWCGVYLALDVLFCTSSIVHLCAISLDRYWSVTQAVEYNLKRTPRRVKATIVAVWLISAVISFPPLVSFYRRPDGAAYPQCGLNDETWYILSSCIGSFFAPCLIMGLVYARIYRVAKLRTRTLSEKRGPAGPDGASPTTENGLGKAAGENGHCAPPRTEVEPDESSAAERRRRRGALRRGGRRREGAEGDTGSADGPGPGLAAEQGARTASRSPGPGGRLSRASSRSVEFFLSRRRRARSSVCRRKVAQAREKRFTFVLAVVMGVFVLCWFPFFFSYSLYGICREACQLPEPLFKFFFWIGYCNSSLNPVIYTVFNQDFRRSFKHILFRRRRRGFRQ
T2 sequence (P19328 whole entry): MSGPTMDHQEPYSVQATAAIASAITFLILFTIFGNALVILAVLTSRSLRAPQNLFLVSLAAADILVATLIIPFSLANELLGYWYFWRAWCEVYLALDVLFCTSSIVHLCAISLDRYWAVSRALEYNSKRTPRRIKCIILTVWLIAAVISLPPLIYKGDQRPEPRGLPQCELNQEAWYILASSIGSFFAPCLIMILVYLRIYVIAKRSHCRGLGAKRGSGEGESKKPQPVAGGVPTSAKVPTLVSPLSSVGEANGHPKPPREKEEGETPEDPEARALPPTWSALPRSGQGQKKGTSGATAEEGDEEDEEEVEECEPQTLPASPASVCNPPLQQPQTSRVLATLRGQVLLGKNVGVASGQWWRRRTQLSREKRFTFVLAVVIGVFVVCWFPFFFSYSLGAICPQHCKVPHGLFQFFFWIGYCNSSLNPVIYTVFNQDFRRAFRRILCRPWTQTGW
T2 sequence (P22909 whole entry): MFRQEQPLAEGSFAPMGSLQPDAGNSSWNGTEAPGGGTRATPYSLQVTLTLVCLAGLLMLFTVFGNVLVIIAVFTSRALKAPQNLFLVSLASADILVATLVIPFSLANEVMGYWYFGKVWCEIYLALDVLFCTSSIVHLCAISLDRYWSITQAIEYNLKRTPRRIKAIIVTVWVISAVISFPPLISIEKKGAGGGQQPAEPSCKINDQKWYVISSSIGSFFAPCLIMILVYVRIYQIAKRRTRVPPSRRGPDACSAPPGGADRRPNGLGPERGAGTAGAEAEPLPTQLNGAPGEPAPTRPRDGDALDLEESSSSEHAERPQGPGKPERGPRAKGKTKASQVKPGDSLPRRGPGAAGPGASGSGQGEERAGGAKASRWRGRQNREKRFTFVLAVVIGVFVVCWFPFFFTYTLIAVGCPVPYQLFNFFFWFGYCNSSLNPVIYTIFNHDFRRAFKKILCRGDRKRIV

[3] = target: T3, 5-hydroxytryptamine receptor 2C (Homo sapiens, UniProt P28335); test: Displacement of [3H]-mesulergine from human 5HT2C receptor after 60 mins by liquid scintillation counting
T3 sequence (P28335 whole entry): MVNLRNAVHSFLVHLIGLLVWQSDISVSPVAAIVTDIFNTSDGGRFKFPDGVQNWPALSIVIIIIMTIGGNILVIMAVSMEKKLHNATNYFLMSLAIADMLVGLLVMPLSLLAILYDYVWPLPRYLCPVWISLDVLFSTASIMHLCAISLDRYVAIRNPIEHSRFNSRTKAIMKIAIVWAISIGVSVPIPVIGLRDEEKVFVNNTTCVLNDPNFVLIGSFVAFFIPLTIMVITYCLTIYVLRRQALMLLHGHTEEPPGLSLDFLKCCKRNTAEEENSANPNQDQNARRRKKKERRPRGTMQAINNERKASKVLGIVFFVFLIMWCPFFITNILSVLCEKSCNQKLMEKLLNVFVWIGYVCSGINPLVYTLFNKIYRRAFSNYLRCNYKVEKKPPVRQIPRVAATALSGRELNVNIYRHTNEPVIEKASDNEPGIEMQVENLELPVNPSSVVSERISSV

D(4) dopamine receptor = target: T4, D(4) dopamine receptor (Homo sapiens, UniProt P21917); test: Displacement of [3H]-YM-09151-2 from human D4 receptor after 120 mins by liquid scintillation counting
T4 sequence (P21917 whole entry): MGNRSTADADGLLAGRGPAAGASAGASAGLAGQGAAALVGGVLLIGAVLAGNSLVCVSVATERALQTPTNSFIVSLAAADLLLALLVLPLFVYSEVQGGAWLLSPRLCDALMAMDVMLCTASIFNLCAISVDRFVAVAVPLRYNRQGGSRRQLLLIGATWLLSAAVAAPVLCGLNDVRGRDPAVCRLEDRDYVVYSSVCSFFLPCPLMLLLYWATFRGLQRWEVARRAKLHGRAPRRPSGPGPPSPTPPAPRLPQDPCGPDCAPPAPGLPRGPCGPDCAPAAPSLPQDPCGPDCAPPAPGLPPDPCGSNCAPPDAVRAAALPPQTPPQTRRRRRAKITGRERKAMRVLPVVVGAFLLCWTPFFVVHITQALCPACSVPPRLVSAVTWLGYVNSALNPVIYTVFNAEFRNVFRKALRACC

SMILES	Ki [1] [nM]	Ki [2] [nM]	Ki [3] [nM]	Ki (D(4) dopamine receptor) [nM]
Clc1ccc(-n2cc(CCCCCN3CCN(c4ccccc4)CC3)cn2)cc1	380	1400	7800	1180
Clc1ccc(-n2cc(CN3CCN(c4ccccc4)CC3)cn2)cc1	2600	2500	8630	180
Clc1ccc(-n2cc(COCCN3CCN(c4ccccc4)CC3)cn2)cc1	850	2100	8100	100
Clc1ccc(-n2cc(CCCN3CCN(c4ccccc4)CC3)cn2)cc1	700	1600	5100	330

Second part, the compound after the results:

Ki [1] [nM]	Ki [2] [nM]	Ki [3] [nM]	Ki (D(4) dopamine receptor) [nM]	SMILES
400	2800	2800	1500	Clc1ccc(-n2cc(COCCCN3CCN(c4ccccc4)CC3)cn2)cc1
570	610	5900	800	Clc1ccc(-n2cc(CCCCN3CCN(c4ccccc4)CC3)cn2)cc1
